The test system of experiment [1] is Nucleic Acid. The experiment can be described thus: Binding affinity to calf thymus DNA assessed as change in melting temperature at 10 uM relative to control. It is filed as nucleic-acid assay. The note with it: Bos taurus.
For experiment [2], the target named is T1, Ribosyldihydronicotinamide dehydrogenase [quinone] (Homo sapiens, UniProt P16083).
T1 sequence (P16083 whole entry): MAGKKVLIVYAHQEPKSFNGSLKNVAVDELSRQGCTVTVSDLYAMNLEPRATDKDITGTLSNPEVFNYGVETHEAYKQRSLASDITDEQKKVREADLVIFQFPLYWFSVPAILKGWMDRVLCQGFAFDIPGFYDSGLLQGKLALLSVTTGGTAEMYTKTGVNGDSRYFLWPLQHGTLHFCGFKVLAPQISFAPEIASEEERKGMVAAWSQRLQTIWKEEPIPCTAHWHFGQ
The experiment can be described thus: Inhibition of human recombinant NQO2 assessed as reduction of DCPIP by spectrophotometry.

Experiment [3] has as its system HCT-116. As to the kind of experiment: Toxicity in human HCT116 cells after 96 hrs by MTT assay. The format is functional.

Take `CN(C)CCNc1ccc2ncn3c4ccc(O)cc4c(=O)c1c23`: the shift in melting temperature (ΔTm) in experiment [1] was 5.1 °C. In experiment [2], the half-maximal inhibitory concentration (IC50) is 296 nM. Besides, the Activity in experiment [3] came out at 1 µM.
Consider `COc1cccc2c1C(=O)c1c(O)c3c(c(O)c1C2=O)C[C@@](O)(C(=O)CO)C[C@@H]3O[C@H]1C[C@H](N)[C@H](O)[C@H](C)O1`, for which the thermal shift (ΔTm) in experiment [1] came to 14.5 °C.
In the case of `CCN(CC)CCNc1ccc2ncn3c4c(OC)ccc(O)c4c(=O)c1c23`, the thermal shift (ΔTm) in experiment [1] amounted to 3.1 °C. Besides, in experiment [2], the concentration for half-maximal inhibition (IC50) worked out at 31 nM. Further, the Activity in experiment [3] came out at 0.54 µM.
For `Cc1nc2ccc(NCCN(C)C)c3c(=O)c4ccccc4n1c23` the same measures were 7.1 °C, 323 nM and 0.46 µM.
For `CCN(CC)CCCNc1ccc2ncn3c4ccc(O)cc4c(=O)c1c23` the same measures were 8 °C, 597 nM and 0.82 µM.
Regarding `CCN(CC)CCNc1ccc2nc(C)n3c4ccc(O)cc4c(=O)c1c23`, the shift in melting temperature (ΔTm) in experiment [1] was determined as 8.6 °C. Also, the IC50 in experiment [2] turned out to be 16 nM. The molecule also returned an Activity in experiment [3] of 3 µM.
Turning to `CCN(CC)CCNc1ccc2ncn3c4ccc(O)cc4c(=O)c1c23` [C-1311], in experiment [1], the ΔTm is 4.5 °C. Moreover, in experiment [2], the half-inhibitory concentration (IC50) is 148 nM. This molecule came in with an Activity in experiment [3] of 0.77 µM.
`CCN(CC)CCNc1ccc2ncn3c4cc(O)ccc4c(=O)c1c23`: the thermal shift (ΔTm) in experiment [1] turned out to be 5 °C. Moreover, in experiment [2], the 50% inhibitory concentration (IC50) is 953 nM. Besides, in experiment [3], the Activity was determined as 2.2 µM.
Take `CCN(CC)CCNc1ccc2ncn3c4c(OC)ccc(OC)c4c(=O)c1c23`: the ΔTm in experiment [1] turned out to be 1.8 °C. In experiment [2], the IC50 was 17 nM. This molecule displayed an Activity in experiment [3] of 1.67 µM.
Turning to `CCN(CC)CCNc1ccc2ncn3c4ccccc4c(=O)c1c23`, the thermal shift (ΔTm) in experiment [1] came to 6.4 °C. For the same molecule, the IC50 in experiment [2] is 427 nM. Moreover, the Activity in experiment [3] came out at 1 µM.
For `CN(C)CCNc1ccc2ncn3c4ccccc4c(=O)c1c23` the same measures were 5.6 °C, 830 nM and 0.57 µM.
For `CN(C)CCCNc1ccc2ncn3c4ccccc4c(=O)c1c23` the same measures were 5.2 °C, 172 nM and 0.86 µM.
For `CCc1nc2ccc(NCCN(C)C)c3c(=O)c4ccccc4n1c23` the same measures were 5.1 °C, 693 nM and 0.47 µM.
On to `CCN(CC)CCNc1ccc2ncn3c4ccc(OC)cc4c(=O)c1c23`, for which the ΔTm in experiment [1] is 4.5 °C. The 50% inhibitory concentration (IC50) in experiment [2] turned out to be 1000 nM. The molecule further displayed an Activity in experiment [3] of 2.9 µM.
Take `CCN(CC)CCNc1ccc2nc(C)n3c4ccc(OC)cc4c(=O)c1c23`: the ΔTm in experiment [1] was 8.6 °C. Besides, the half-maximal inhibitory concentration (IC50) in experiment [2] was found to be 9 nM. The molecule further displayed an Activity in experiment [3] of 3 µM.
`Cc1nc2ccc(NCCN(C)C)c3c(=O)c4cc(O)ccc4n1c23`: the ΔTm in experiment [1] came to 9.1 °C. The IC50 in experiment [2] was determined as 50 nM. For the same molecule, the Activity in experiment [3] was 0.65 µM.
For `CCN(CC)CCNc1ccc2ncn3c4c(OC)cccc4c(=O)c1c23` the same measures were 5 °C, 99 nM and 1.7 µM.
Take `CCN(CC)CCNc1ccc2ncn3c4cc(OC)c(OC)c(O)c4c(=O)c1c23`: in experiment [1], the ΔTm is 1 °C. Further, the IC50 in experiment [2] amounted to 6 nM. The molecule also showed an Activity in experiment [3] of 0.95 µM.

The values above are taken from ChEMBL document CHEMBL1157906, “Imidazoacridin-6-ones as novel inhibitors of the quinone oxidoreductase NQO2” (Bioorg Med Chem Lett, 2010).
